Measurements as given in patent publication US5324857A, “Inhibition of the formation of nitrosamines” (Solvay Interox, priority 1992, dated 1994).

Legend:
[1] = Nitrosamine formation during oxidation of dodecyldimethylamine with hydrogen peroxide under metal stress conditions, CDTMPA chelant, with free radical scavenger; details: for Nitrosamine content, total: MDNA + NDMA; for Nitrosamine content, total / Nitrosamine content, MDNA / Nitrosamine content, NDMA: 2.0 mmoles scavenger, CDTMPA, 60° C. then 75° C., total 4 hours; for Nitrosamine content, MDNA: methyldodecylnitrosamine; for Nitrosamine content, NDMA: nitrosodimethylamine; for reduction in nitrosamine formation: mixture already containing phosphonic acid chelating agent (CDTMPA), in words
Procedure: This Comparison and these Examples were each carried out using the following general method:-Dodecyldimethylamine (0.2012 moles, 42.94 g), and sufficient pure water to 150 g, ie approximately 106.9 g, were charged into a passivated 250 mL reaction flask, at ambient temperature together with 0.16 g of the stock metal solution described below to introduce 0.011 mmoles of transition metal impurities and thereby create stress conditions. […]
(§1) The stock metal solution was obtained by dissolving CuSO4.5H2O, 0.393 g, MnSO4.H2O, 0.1475 g, K2CrO4, 0.0935 g, Fe(NH4)2(SO4)2.6H2O, 3.5106 g, AlK(SO4)2.12H2O, 8.791 g in 500 mL water (deionized) containing 20 mL of 10%w/w sulfuric acid solution. It contained a total of 2350 ppm metals concentration. Thus, the concentration of metals in the reaction mixture was about 2.3 ppm.
(§2) The reaction mixture was then heated to a temperature of 60° C. and stirred. An aqueous hydrogen peroxide solution, 50% w/w solution, stabilized by sodium pyrophosphate at 70 ppm calculated as PO4, 15.03 g, was then delivered into the reaction mixture at a constant slow rate during the subsequent 45 minutes. In the Examples, but not in the Comparison, the hydrogen peroxide solution also contained 2.0 mmoles of a free radical scavenger, as specified below. When all the hydrogen peroxide had been introduced, the reaction temperature was increased to 75° C. and the reaction permitted to continue for a total of 4 hours. The mixture was then cooled and analyzed for yield of amine oxide and for the production of by-product volatile nitrosamines, specifically methyldodecylnitrosamine (MDNA) and nitrosodimethylamine (NDMA).

[2] = Nitrosamine formation during oxidation of dodecyldimethylamine with hydrogen peroxide under metal stress conditions, DTPA chelant, with free radical scavenger; details: for Nitrosamine content, total: MDNA + NDMA; for Nitrosamine content, total / Nitrosamine content, MDNA / Nitrosamine content, NDMA: 2.0 mmoles scavenger, DTPA 0.043 mmoles, 60° C. then 75° C., total 4 hours; for Nitrosamine content, MDNA: methyldodecylnitrosamine; for Nitrosamine content, NDMA: nitrosodimethylamine; for reduction in nitrosamine formation: mixture already containing carboxylate chelating agent (DTPA), in words
Procedure: This Comparison and these Examples were each carried out using the following general method:-Dodecyldimethylamine (0.2012 moles, 42.94 g), and sufficient pure water to 150 g, ie approximately 106.9 g, were charged into a passivated 250 mL reaction flask, at ambient temperature together with 0.16 g of the stock metal solution described below to introduce 0.011 mmoles of transition metal impurities and thereby create stress conditions. A chelating agent, DTPA, viz diethylenetriaminepentacarboxylic acid, 0.043 mmoles, was then introduced into the mixture to provide a mole ratio to the metal of about 4:1.
as §1, §2
The free radical scavengers were respectively 2,6-di-tert-butyl-4-methylphenol (BHT) in Ex2, butylated hydroxyanisole, a mixture of 2-tert-butylmethoxy anisole and 3-tert-butylmethoxy anisole (BHA) in Ex3, ethyl gallate (EtG) in Ex4 and propyl gallate (PrG) in Ex5.

SMILES	Nitrosamine content, total [1]	Nitrosamine content, MDNA [1]	Nitrosamine content, NDMA [1]	Nitrosamine content, total [2]	Nitrosamine content, MDNA [2]	Nitrosamine content, NDMA [2]	reduction in nitrosamine formation [1]	reduction in nitrosamine formation [2]
COc1ccc(O)c(C(C)(C)C)c1 [BHA, butylated hydroxyanisole]	276 ppb	151 ppb	125 ppb	779 ppb	652 ppb	127 ppb	–	–
Cc1cc(C(C)(C)C)c(O)c(C(C)(C)C)c1 [BHT, 2,6-di-tert-butyl-4-methylphenol]	335 ppb	212 ppb	123 ppb	1794 ppb	1420 ppb	374 ppb	–	–
CCC(C)O (stereo not shown) [BuL, 2-butanol]	1261 ppb	582 ppb	679 ppb	–	–	–	–	–
CCOC(=O)c1cc(O)c(O)c(O)c1 [EtG, ethyl gallate]	87 ppb	57 ppb	30 ppb	407 ppb	334 ppb	73 ppb	marked reduction in nitrosamine formation	marked reduction in nitrosamine formation
CCCOC(=O)c1cc(O)c(O)c(O)c1 [PrG, propyl gallate]	80 ppb	59 ppb	21 ppb	308 ppb	230 ppb	78 ppb	marked reduction in nitrosamine formation	marked reduction in nitrosamine formation
O=C(O)CCSCCC(=O)O [TPA, thiodipropionic acid]	541 ppb	444 ppb	97 ppb	–	–	–	–	–
